Among the data in patent publication US11591365B2, “BCL9 peptides and variants thereof” (WntRx Pharmaceuticals Inc., priority 2017, dated 2023) are IC50 values, retold here.

pIC50: −log10 of the molar value. Where a SMILES comes first, the peptide text is derived from it. Bridges are numbered along the chain shown (N, C = ends). [ ]: non-standard residue; d: D form. 2Nal = N[C@@H](Cc1ccc2ccccc2c1)C(=O)O; d2Nal = N[C@H](Cc1ccc2ccccc2c1)C(=O)O; NMeCha = CN[C@@H](CC1CCCCC1)C(=O)O; NMeR = CN[C@@H](CCCNC(=N)N)C(=O)O; NMeQ = CN[C@@H](CCC(N)=O)C(=O)O; Cha = N[C@@H](CC1CCCCC1)C(=O)O; Cba = N[C@@H](CC1CCC1)C(=O)O; S5 = C=CCCC[C@](C)(N)C(=O)O

The term pIC50 denotes the IC50 on a negative log10 scale, so that one unit is a factor of ten.

One experiment concerns Colo320DM. Description: Colo320DM cell viability. It counts as cell-based, human. The source says: In some embodiments, a polypeptide described herein inhibits binding of BLC9 to β-catenin when assessed in a cell-viability assay. In some embodiments, the cell-viability assay is a CellTiterGlo luminescent assay, wherein the viability of cells is quantitatively measured. Various cell lines, transformed cell lines or primary cells derived from a healthy subject or subject suffering from a disease can be used in this assay.

The test system of another experiment is LEF-TCF-bla HCT116 cells. Kind of experiment: Wnt reporter assay: Wnt/Beta-Catenin-LEF-TCF-bla HCT116 inhibitor screen, constitutively activated. Particulars: 5 hours incubation with compound. It counts as cell-based. The text has this:
In various embodiments, a polypeptide described herein inhibits binding of BCL9 to β-catenin when assessed in a Wnt transcription assay. In some embodiments, the Wnt transcription assay is a cell-based assay. In some embodiments, the cell-based Wnt transcription assay is a GeneBLAzer® beta-lactamase (bla) reporter assay. Various cell lines, transformed cell lines or primary cells derived from a healthy subject or subject suffering from a disease can be used in this assay. A cell line known to be dependent on canonical Wnt/β-catenin signaling for its survival may also be used. In some embodiments, CellSensor™ LEF/TCF-bla HCT-116 cells are used in this reporter assay. These cells contain a beta-lactamase (BLA) reporter gene under the control of a 0-catenin/LEF/TCF response element stably integrated into HCT-116 cells. As the cells constitutively express beta-lactamase, adding a polypeptide that inhibits binding of BCL9 to β-catenin in this assay leads to reduced production of beta-lactamase. The efficiency of the polypeptide in suppressing Wnt transcription can therefore be quantitatively calculated in this assay. In some embodiments, a polypeptide described herein suppresses the Wnt transcription as measured in a GeneBLAzer® beta-lactamase (bla) reporter assay, which is indicative of the ability of the polypeptide to inhibit binding of BCL9 to β-catenin.
Wnt/Beta-Catenin-LEF-TCF-bla HCT116-Inhibitor Screen, Constitutively Activated. LEF-TCF-bla HCT116 cells are thawed and prepared as described above for the Activator Screen. 32 μL of cell suspension is added to each well of a 384-well Poly-D-Lysine assay plate. Cells in Assay Media are incubated for 16-24 hours in the plate at 37° C./5% CO2 in a humidified incubator. 4 μL of a 10× serial dilution of ICG-001 (control inhibitor starting concentration, 25,000 nM) or compounds are added to appropriate wells of the plate. 4 μL of Assay Media is added to all wells to bring the final assay volume to 40 μL. The plate is incubated for 5 hours at 37° C./5% CO2 in a humidified incubator. 8 μL of 1 μM Substrate Loading Solution is added to each well and the plate is incubated for 2 hours at room temperature. The plate is read on a fluorescence plate reader.

As to `CC[C@H](C)[C@@H]1NC(=O)[C@@](C)(NC(=O)[C@H](CCCNC(=N)N)NC(=O)[C@H](CC2CCCCC2)NC(=O)[C@@H](NC(=O)[C@H](CCC(N)=O)N(C)C(=O)[C@H](CC(C)C)NC(=O)[C@H](CO)NC(=O)[C@H](CCCNC(=N)N)NC(=O)[C@H](CCC(N)=O)N(C)C(=O)[C@H](CCCNC(=N)N)NC(=O)[C@H](Cc2c[nH]cn2)NC(C)=O)[C@@H](C)O)CCCC=CCCC[C@@](C)(C(=O)N[C@@H](CC2CCC2)C(=O)N[C@@H](Cc2ccc3ccccc3c2)C(N)=O)NC(=O)[C@H](CCCNC(=N)N)NC(=O)[C@H](CCC(N)=O)NC1=O` [SEQ ID NO: 163, HR(N-methylQ)RSL(N-methylQ)T(Cha)RXIQRX(CBA)(2-Nal)] (Ac-HR[NMeQ]RSL[NMeQ]T[Cha]R[S5]IQR[S5][Cba][2Nal]-NH2; staple 11-15; N-terminus and C-terminus assumed), the pIC50 is 5.62 in the experiment with Colo320DM and 5.35 with LEF-TCF-bla HCT116 cells.
As to `CC[C@H](C)[C@@H]1NC(=O)[C@@](C)(NC(=O)[C@H](CCCNC(=N)N)NC(=O)[C@H](CC(C)C)NC(=O)[C@@H](NC(=O)[C@H](CCC(N)=O)NC(=O)[C@H](CC(C)C)NC(=O)[C@H](CO)NC(=O)[C@H](CCCNC(=N)N)NC(=O)[C@H](CCC(N)=O)NC(=O)[C@H](CCCNC(=N)N)NC(=O)[C@H](Cc2c[nH]cn2)NC(C)=O)[C@@H](C)O)CCCC=CCCC[C@@](C)(C(=O)N[C@@H](CC2CCCCC2)C(=O)N[C@@H](Cc2ccc3ccccc3c2)C(N)=O)NC(=O)[C@H](CCCNC(=N)N)NC(=O)[C@H](CCC(N)=O)NC1=O` [SEQ ID NO: 180, HRQRSLQTLRXIQRX(Cha)(2-Nal)] (Ac-HRQRSLQTLR[S5]IQR[S5][Cha][2Nal]-NH2; staple 11-15), the results for the pIC50 with Colo320DM and in the experiment on LEF-TCF-bla HCT116 cells were 5.73 and 5.66, respectively.
The like results for `CC[C@H](C)[C@@H]1NC(=O)[C@@](C)(NC(=O)[C@H](CCCNC(=N)N)NC(=O)[C@H](CC(C)C)NC(=O)[C@@H](NC(=O)[C@H](CCC(N)=O)N(C)C(=O)[C@H](CC(C)C)NC(C)=O)[C@@H](C)O)CCCC=CCCC[C@@](C)(C(=O)N[C@@H](CC2CCC2)C(=O)N[C@@H](Cc2ccc3ccccc3c2)C(N)=O)NC(=O)[C@H](CCCNC(=N)N)NC(=O)[C@H](CCC(N)=O)NC1=O` [SEQ ID NO: 108, L(N-methylQ)TLRXIQRX(CBA)(2-Nal)] (Ac-L[NMeQ]TLR[S5]IQR[S5][Cba][2Nal]-NH2; staple 6-10) were, in that order, 5.51 and 5.50.
As for `CC[C@H](C)[C@@H]1NC(=O)[C@@](C)(NC(=O)[C@H](CCCNC(=N)N)N(C)C(=O)[C@H](CC(C)C)NC(=O)[C@@H](NC(=O)[C@H](CCC(N)=O)NC(=O)[C@H](CC(C)C)NC(=O)[C@H](CO)NC(=O)[C@H](CCCNC(=N)N)NC(=O)[C@H](CCC(=O)O)NC(=O)[C@H](CCCNC(=N)N)NC(=O)[C@H](Cc2c[nH]cn2)NC(C)=O)[C@@H](C)O)CCCC=CCCC[C@@](C)(C(=O)N[C@@H](CC2CCC2)C(=O)N[C@@H](Cc2ccc3ccccc3c2)C(=O)O)NC(=O)[C@H](CCCNC(=N)N)NC(=O)[C@H](CCC(N)=O)NC1=O` [SEQ ID NO: 152, HRERSLQTL(N-methylR)XIQRX(CBA)(2-Nal)] (Ac-HRERSLQTL[NMeR][S5]IQR[S5][Cba][2Nal]-OH; staple 11-15), the pIC50 in the experiment on Colo320DM was below 5.30.
Consider `CC[C@H](C)[C@@H]1NC(=O)[C@@](C)(NC(=O)[C@H](CCCNC(=N)N)NC(=O)[C@H](CC(C)C)NC(=O)[C@@H](NC(=O)[C@H](CCC(N)=O)N(C)C(=O)[C@H](CC2CCCCC2)N(C)C(=O)[C@H](CO)NC(=O)[C@H](CCCNC(=N)N)NC(=O)[C@H](CCC(N)=O)NC(=O)[C@H](CCCNC(=N)N)NC(=O)[C@H](Cc2c[nH]cn2)NC(C)=O)[C@@H](C)O)CCCC=CCCC[C@@](C)(C(=O)N[C@@H](CC2CCCCC2)C(=O)N[C@@H](Cc2ccc3ccccc3c2)C(N)=O)NC(=O)[C@H](CCCNC(=N)N)NC(=O)[C@H](CCC(N)=O)NC1=O` [SEQ ID NO: 186, HRQRS(N-MeCha)(N-MeGln)TLRXIQRX(Cha)(2-Nal)] (Ac-HRQRS[NMeCha][NMeQ]TLR[S5]IQR[S5][Cha][2Nal]-NH2; staple 11-15), for which, in the experiment with Colo320DM, the negative-log IC50 (pIC50) was 5.65.
`CC[C@H](C)[C@@H]1NC(=O)[C@@](C)(NC(=O)[C@H](CCCNC(=N)N)N(C)C(=O)[C@H](CC(C)C)NC(=O)[C@@H](NC(=O)[C@H](CCC(N)=O)NC(=O)[C@H](CC(C)C)NC(=O)[C@H](CO)NC(=O)[C@H](CCCNC(=N)N)NC(=O)[C@H](CCC(N)=O)NC(=O)[C@H](CCCNC(=N)N)NC(=O)[C@H](Cc2c[nH]cn2)NC(C)=O)[C@@H](C)O)CCCC=CCCC[C@@](C)(C(=O)N[C@@H](CC2CCCCC2)C(=O)N[C@@H](Cc2ccc3ccccc3c2)C(N)=O)NC(=O)[C@H](CCCNC(=N)N)NC(=O)[C@H](CCC(N)=O)NC1=O` [SEQ ID NO: 189, HRQRSLQTL(N-MeArg)XIQRX(Cha)(2-Nal)] (Ac-HRQRSLQTL[NMeR][S5]IQR[S5][Cha][2Nal]-NH2; staple 11-15) gave a negative logarithm of the IC50 (pIC50) in the experiment on Colo320DM of 5.49.
`CC[C@H](C)[C@@H]1NC(=O)[C@@](C)(NC(=O)[C@H](CCCNC(=N)N)NC(=O)[C@H](CC(C)C)NC(=O)[C@@H](NC(=O)[C@H](CCC(N)=O)NC(=O)[C@H](CC(C)C)NC(=O)[C@H](CO)NC(=O)[C@H](CCCNC(=N)N)NC(=O)[C@H](CCC(N)=O)NC(=O)[C@H](CCCNC(=N)N)NC(=O)[C@H](Cc2c[nH]cn2)NC(C)=O)[C@@H](C)O)CCCC=CCCC[C@@](C)(C(=O)N[C@@H](Cc2ccc(Cl)cc2)C(=O)N[C@@H](Cc2ccc3ccccc3c2)C(N)=O)NC(=O)[C@H](CCCNC(=N)N)NC(=O)[C@H](CCC(N)=O)NC1=O` (single isomer, unassigned) [SEQ ID NO: 179, HRQRSLQTLRXIQRX(Phe-4-Cl)(2-Nal)]: the pIC50 with Colo320DM is 5.33.
Still for that read-out and setting: in the case of `CC[C@H](C)[C@@H]1NC(=O)[C@@](C)(NC(=O)[C@H](CCCNC(=N)N)NC(=O)[C@H](CC2CCCCC2)NC(=O)[C@]2(C)CCCC=CCCC[C@](C)(NC(=O)[C@H](CCCNC(=N)N)NC(=O)[C@H](CCC(N)=O)NC(=O)[C@H](CCCNC(=N)N)NC(=O)[C@H](Cc3c[nH]cn3)NC(C)=O)C(=O)N[C@@H](CC(C)C)C(=O)N[C@@H](CCC(N)=O)C(=O)N2)CCCC=CCCC[C@@](C)(C(=O)N[C@@H](CC2CCCCC2)C(=O)N[C@@H](Cc2ccc3ccccc3c2)C(N)=O)NC(=O)[C@H](CCCNC(=N)N)NC(=O)[C@H](CCC(N)=O)NC1=O` [SEQ ID NO: 92, HRQRXLQX(Cha)RZIQRZ(Cha)(2-Nal)] (Ac-HRQR[S5]LQ[S5][Cha]R[S5]IQR[S5][Cha][2Nal]-NH2; staple 5-8, 11-15) it was 5.60; in that of `CC[C@H](C)[C@@H]1NC(=O)[C@@](C)(NC(=O)[C@H](CCCNC(=N)N)NC(=O)[C@H](CC(C)C)NC(=O)[C@@H](NC(=O)[C@H](CCC(N)=O)NC(=O)[C@H](CC(C)C)NC(=O)[C@H](CO)NC(=O)[C@H](CCCNC(=N)N)NC(=O)[C@H](CCC(=O)O)NC(=O)[C@H](CCCNC(=N)N)NC(=O)[C@H](Cc2c[nH]cn2)NC(C)=O)[C@@H](C)O)CCCC=CCCC[C@@](C)(C(=O)N[C@@H](CC(C)C)C(=O)N[C@@H](Cc2ccc3ccccc3c2)C(N)=O)NC(=O)[C@H](CCCNC(=N)N)NC(=O)[C@H](CCC(N)=O)NC1=O` [SEQ ID NO: 6, HRERSLQTLRXIQRXL(2-Nal)] (Ac-HRERSLQTLR[S5]IQR[S5]L[2Nal]-NH2; staple 11-15), 5.28.
In turn, `CC[C@H](C)[C@@H]1NC(=O)[C@@](C)(NC(=O)[C@H](CCCNC(=N)N)NC(=O)[C@H](CC(C)C)NC(=O)[C@@H](NC(=O)[C@H](CCC(N)=O)NC(=O)[C@H](CC(C)C)NC(=O)[C@H](CO)NC(=O)[C@H](CCCNC(=N)N)NC(=O)[C@H](CCC(N)=O)NC(=O)[C@H](CCCNC(=N)N)NC(=O)[C@H](Cc2c[nH]cn2)NC(C)=O)[C@@H](C)O)CCCC=CCCC[C@@](C)(C(=O)N[C@@H](CC2CCCCC2)C(=O)N[C@H](Cc2ccc3ccccc3c2)C(N)=O)NC(=O)[C@H](CCCNC(=N)N)NC(=O)[C@H](CCC(N)=O)NC1=O` [SEQ ID NO: 188, HRQRSLQTLRXIQRX(Cha)(2DNal)] (Ac-HRQRSLQTLR[S5]IQR[S5][Cha][d2Nal]-NH2; staple 11-15) had a pIC50 in the experiment with Colo320DM of 5.48.
